# What was measured:
# [1] = test system: HCT116 colorectal cancer cells; assay: Cisplatin Sensitization Assay (96 h cell viability MTS); type: cell-based; details: concentration of compound required to reduce the IC50 of Cisplatin alone by at least 3-fold; HCT116, 96 h MTS
# Protocol: Compounds can be screened for their ability to sensitize HCT116 colorectal cancer cells to Cisplatin using a 96 h cell viability (MTS) assay. […] Compounds and Cisplatin are then both added simultaneously to the cell media in 2-fold serial dilutions from a top final concentration of 10 μM as a full matrix of concentrations in a final cell volume of 200 μl, and the cells are then incubated at 37° C. in 5% CO2. After 96 h, 40 μl of MTS reagent (Promega G358a) is added to each well and the cells are incubated for 1 h at 37° C. in 5% CO2. Finally, absorbance is measured at 490 nm using a SpectraMax Plus 384 reader (Molecular Devices) and the concentration of compound required to reduce the IC50 of Cisplatin alone by at least 3-fold (to 1 decimal place) can be reported.
# [2] = target: T1, ATR kinase (full-length ATR) (Homo sapiens, UniProt Q13535); assay: ATR Inhibition Assay (radioactive-phosphate incorporation); type: biochemical; details: Ki(app); 5 nM full-length ATR, 10 μM ATP, 800 μM target peptide, 25° C.
# T1 construct: in the presence of 5 nM full-length ATR
# T1 sequence (Q13535 whole entry): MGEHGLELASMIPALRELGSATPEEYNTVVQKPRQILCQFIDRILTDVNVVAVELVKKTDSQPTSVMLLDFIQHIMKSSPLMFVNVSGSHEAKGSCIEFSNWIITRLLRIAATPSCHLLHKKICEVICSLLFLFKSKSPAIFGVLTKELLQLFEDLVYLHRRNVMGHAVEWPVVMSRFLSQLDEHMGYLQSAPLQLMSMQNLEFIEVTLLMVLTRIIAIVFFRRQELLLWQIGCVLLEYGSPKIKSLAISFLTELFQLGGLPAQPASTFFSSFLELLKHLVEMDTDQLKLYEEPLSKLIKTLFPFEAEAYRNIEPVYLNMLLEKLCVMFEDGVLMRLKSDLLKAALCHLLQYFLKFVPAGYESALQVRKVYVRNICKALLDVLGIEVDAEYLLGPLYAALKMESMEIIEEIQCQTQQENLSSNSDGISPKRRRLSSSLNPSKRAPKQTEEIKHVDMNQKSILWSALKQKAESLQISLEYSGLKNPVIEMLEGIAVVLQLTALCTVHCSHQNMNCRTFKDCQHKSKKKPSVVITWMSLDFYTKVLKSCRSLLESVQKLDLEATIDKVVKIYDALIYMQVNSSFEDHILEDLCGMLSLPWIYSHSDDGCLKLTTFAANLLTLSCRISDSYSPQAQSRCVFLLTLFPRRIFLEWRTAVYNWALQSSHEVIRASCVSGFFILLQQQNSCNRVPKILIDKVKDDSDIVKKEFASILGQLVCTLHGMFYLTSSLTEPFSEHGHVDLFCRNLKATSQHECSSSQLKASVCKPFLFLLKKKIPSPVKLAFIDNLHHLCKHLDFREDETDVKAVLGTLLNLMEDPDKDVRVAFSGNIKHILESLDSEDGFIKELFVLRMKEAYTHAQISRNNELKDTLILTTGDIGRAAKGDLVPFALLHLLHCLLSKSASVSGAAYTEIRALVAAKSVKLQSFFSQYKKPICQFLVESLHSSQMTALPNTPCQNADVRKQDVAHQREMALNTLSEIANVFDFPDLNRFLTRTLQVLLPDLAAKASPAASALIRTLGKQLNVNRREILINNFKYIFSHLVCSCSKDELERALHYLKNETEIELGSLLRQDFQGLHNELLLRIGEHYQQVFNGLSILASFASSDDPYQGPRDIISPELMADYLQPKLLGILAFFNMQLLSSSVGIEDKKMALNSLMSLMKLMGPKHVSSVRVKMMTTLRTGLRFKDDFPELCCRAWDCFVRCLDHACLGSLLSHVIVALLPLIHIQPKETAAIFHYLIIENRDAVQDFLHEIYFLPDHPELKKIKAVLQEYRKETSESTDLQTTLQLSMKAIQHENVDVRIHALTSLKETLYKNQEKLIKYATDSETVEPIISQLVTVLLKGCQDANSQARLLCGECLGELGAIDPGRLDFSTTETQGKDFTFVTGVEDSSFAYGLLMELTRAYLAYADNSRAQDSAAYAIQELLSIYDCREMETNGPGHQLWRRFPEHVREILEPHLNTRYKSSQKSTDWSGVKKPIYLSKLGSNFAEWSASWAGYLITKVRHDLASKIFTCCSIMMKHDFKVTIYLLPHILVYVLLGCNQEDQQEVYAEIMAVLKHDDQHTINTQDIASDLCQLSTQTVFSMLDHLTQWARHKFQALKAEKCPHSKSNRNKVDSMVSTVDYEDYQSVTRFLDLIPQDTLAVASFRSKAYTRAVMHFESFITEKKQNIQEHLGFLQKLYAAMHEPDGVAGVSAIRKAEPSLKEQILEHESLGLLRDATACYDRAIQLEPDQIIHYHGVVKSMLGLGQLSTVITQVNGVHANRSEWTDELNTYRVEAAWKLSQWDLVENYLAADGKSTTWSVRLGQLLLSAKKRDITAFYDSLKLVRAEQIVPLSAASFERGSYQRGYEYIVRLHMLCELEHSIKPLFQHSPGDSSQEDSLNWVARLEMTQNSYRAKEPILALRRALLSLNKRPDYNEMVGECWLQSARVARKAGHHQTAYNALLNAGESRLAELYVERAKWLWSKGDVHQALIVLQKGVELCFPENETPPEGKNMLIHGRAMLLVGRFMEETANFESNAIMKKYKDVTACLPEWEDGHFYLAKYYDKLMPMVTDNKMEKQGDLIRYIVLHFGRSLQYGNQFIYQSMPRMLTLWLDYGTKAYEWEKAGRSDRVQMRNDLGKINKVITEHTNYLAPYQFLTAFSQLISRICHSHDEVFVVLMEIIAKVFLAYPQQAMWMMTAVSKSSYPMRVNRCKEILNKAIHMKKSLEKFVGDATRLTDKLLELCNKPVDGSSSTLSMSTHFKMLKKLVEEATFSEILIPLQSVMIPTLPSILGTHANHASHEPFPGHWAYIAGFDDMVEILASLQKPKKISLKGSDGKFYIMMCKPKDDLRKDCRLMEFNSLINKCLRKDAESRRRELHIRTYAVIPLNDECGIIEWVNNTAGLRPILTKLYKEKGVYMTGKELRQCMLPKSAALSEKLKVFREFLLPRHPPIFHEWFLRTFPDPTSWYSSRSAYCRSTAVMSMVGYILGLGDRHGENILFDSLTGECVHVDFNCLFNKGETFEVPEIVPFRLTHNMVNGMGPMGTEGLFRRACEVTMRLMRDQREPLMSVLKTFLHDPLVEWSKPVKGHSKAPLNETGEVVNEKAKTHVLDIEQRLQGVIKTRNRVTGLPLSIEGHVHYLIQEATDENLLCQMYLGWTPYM
# Protocol: Compounds were screened for their ability to inhibit ATR kinase using a radioactive-phosphate incorporation assay. Assays were carried out in a mixture of 50 mM Tris/HCl (pH 7.5), 10 mM MgCl2 and 1 mM DTT. Final substrate concentrations were 10 μM [γ-33P]ATP (3 mCi 33P ATP/mmol ATP, Perkin Elmer) and 800 μM target peptide (ASELPASQPQPFSAKKK (SEQ. ID NO: 1)).
# Assays were carried out at 25° C. in the presence of 5 nM full-length ATR. An assay stock buffer solution was prepared containing all of the reagents listed above, with the exception of ATP and the test compound of interest. 13.5 μL of the stock solution was placed in a 96 well plate followed by addition of 2 μL of DMSO stock containing serial dilutions of the test compound (typically starting from a final concentration of 15 μM with 3-fold serial dilutions) in duplicate (final DMSO concentration 7%). The plate was pre-incubated for 10 minutes at 25° C. and the reaction initiated by addition of 15 μL [γ-33P]ATP (final concentration 10 μM).
# The reaction was stopped after […] by the addition of 30 μL 0.1M phosphoric acid containing 2 mM ATP. A multiscreen phosphocellulose filter 96-well plate (Millipore, Cat no. MAPHN0B50) was pretreated with 100 μL 0.2M phosphoric acid prior to the addition of 45 μL of the stopped assay mixture. The plate was washed with 5×200 μL 0.2M phosphoric acid. After drying, 100 μL Optiphase ‘SuperMix’ liquid scintillation cocktail (Perkin Elmer) was added to the well prior to scintillation counting (1450 Microbeta Liquid Scintillation Counter, Wallac).
# After removing mean background values for all of the data points, Ki(app) data were calculated from non-linear regression analysis of the initial rate data using the Prism software package (GraphPad Prism version 3.0cx for Macintosh, GraphPad Software, San Diego Calif., USA).
Compound,Ki [2] [nM],Cisplatin Sensitization Assay [1]
"Nc1nn2cc(F)cnc2c1C(=O)Nc1cncnc1O[C@H]1CN2CCC1CC2 [I-A-3, (R)-2-amino-6-fluoro-N-(4-(quinuclidin-3-yloxy)pyrimidin-5-yl)pyrazolo[1,5-a]pyrimidine-3-carboxamide]",10 to 1000,++ (Compounds with a Cisplatin sensitization value >0.02 μM but <0.2 μM are marked with “++.”)
"Nc1nn2cc(F)cnc2c1C(=O)Nc1cncnc1O[C@@H]1CN2CCC1CC2 [I-A-4, (S)-2-amino-6-fluoro-N-(4-(quinuclidin-3-yloxy)pyrimidin-5-yl)pyrazolo[1,5-a]pyrimidine-3-carboxamide]",10 to 1000,++ (Compounds with a Cisplatin sensitization value >0.02 μM but <0.2 μM are marked with “++.”)
"CN(C)[C@H]1CC[C@H](Oc2ncncc2NC(=O)c2c(N)nn3cc(F)cnc23)CC1 [I-A-12, 2-amino-N-(4-(((1r,4r)-4-(dimethylamino)cyclohexyl)oxy)pyrimidin-5-yl)-6-fluoropyrazolo[1,5-a]pyrimidine-3-carboxamide]",10 to 1000,++ (Compounds with a Cisplatin sensitization value >0.02 μM but <0.2 μM are marked with “++.”)
"CN(C)[C@H]1CC[C@H](Oc2ncncc2NC(=O)c2c(N)nn3ccc(C(F)(F)F)nc23)CC1 [I-A-13, 2-amino-N-(4-(((1r,4r)-4-(dimethylamino)cyclohexyl)oxy)pyrimidin-5-yl)-5-(trifluoromethyl)pyrazolo[1,5-a]pyrimidine-3-carboxamide]",10 to 1000,++ (Compounds with a Cisplatin sensitization value >0.02 μM but <0.2 μM are marked with “++.”)
"CC(C)Oc1ncncc1NC(=O)c1c(N)nn2cc(F)cnc12 [I-A-14, 2-amino-6-fluoro-N-(4-isopropoxypyrimidin-5-yl)pyrazolo[1,5-a]pyrimidine-3-carboxamide]",10 to 1000,++ (Compounds with a Cisplatin sensitization value >0.02 μM but <0.2 μM are marked with “++.”)
"CC(C)Oc1ncncc1NC(=O)c1c(N)nn2ccc(OCCN(C)C)nc12 [I-A-15, 2-amino-5-(2-(dimethylamino)ethoxy)-N-(4-isopropoxypyrimidin-5-yl)pyrazolo[1,5-a]pyrimidine-3-carboxamide]",1000 to 5000,+ (Compounds with a Cisplatin sensitization value >0.2 μM but <5 μM are marked with “+.”)
"COc1ncncc1NC(=O)c1c(N)nn2ccc(OCCN(C)C)nc12 [I-A-16, 2-amino-5-(2-(dimethylamino)ethoxy)-N-(4-methoxypyrimidin-5-yl)pyrazolo[1,5-a]pyrimidine-3-carboxamide]",1000 to 5000,+ (Compounds with a Cisplatin sensitization value >0.2 μM but <5 μM are marked with “+.”)
"COc1ncncc1NC(=O)c1c(N)nn2cc(CC#N)cnc12 [I-A-17, 2-amino-6-(cyanomethyl)-N-(4-methoxypyrimidin-5-yl)pyrazolo[1,5-a]pyrimidine-3-carboxamide]",10 to 1000,++ (Compounds with a Cisplatin sensitization value >0.02 μM but <0.2 μM are marked with “++.”)
"Nc1nn2cc(F)cnc2c1C(=O)Nc1cncnc1O[C@H]1C[C@]2(CCN2)C1 [I-A-18, N-(4-((4s,6r)-1-azaspiro[3.3]heptan-6-yloxy)pyrimidin-5-yl)-2-amino-6-fluoropyrazolo[1,5-a]pyrimidine-3-carboxamide]",1000 to 5000,+ (Compounds with a Cisplatin sensitization value >0.2 μM but <5 μM are marked with “+.”)
"CN1CCN(C(=O)C2CCN(c3ncncc3NC(=O)c3c(N)nn4cc(F)cnc34)CC2)CC1 [I-A-19, 2-amino-6-fluoro-N-(4-(4-(4-methylpiperazine-1-carbonyl)piperidin-1-yl)pyrimidin-5-yl)pyrazolo[1,5-a]pyrimidine-3-carboxamide]",1000 to 5000,+ (Compounds with a Cisplatin sensitization value >0.2 μM but <5 μM are marked with “+.”)
"CN1CCN(c2ncncc2NC(=O)c2c(N)nn3cc(F)cnc23)CC1 [I-A-20, 2-amino-6-fluoro-N-(4-(4-methylpiperazin-1-yl)pyrimidin-5-yl)pyrazolo[1,5-a]pyrimidine-3-carboxamide]",1000 to 5000,+ (Compounds with a Cisplatin sensitization value >0.2 μM but <5 μM are marked with “+.”)
"Nc1nn2cc(F)cnc2c1C(=O)Nc1cnncc1N1CCCC1 [I-B-16, 2-amino-6-fluoro-N-(5-(pyrrolidin-1-yl)pyridazin-4-yl)pyrazolo[1,5-a]pyrimidine-3-carboxamide]",1000 to 5000,–
"CN1CCN(C2CCN(c3cnncc3NC(=O)c3c(N)nn4cc(F)cnc34)CC2)CC1 [I-B-24, 2-amino-6-fluoro-N-(5-(4-(4-methylpiperazin-1-yl)piperidin-1-yl)pyridazin-4-yl)pyrazolo[1,5-a]pyrimidine-3-carboxamide]",10 to 1000,–
"COc1cnccc1NC(=O)c1c(N)nn2ccc(C(F)(F)F)nc12 [I-C-4, 2-amino-N-(3-methoxypyridin-4-yl)-5-(trifluoromethyl)pyrazolo[1,5-a]pyrimidine-3-carboxamide]",10 to 1000,–

# Further lines, with some results ahead:
Ki [2] [nM],Compound,Cisplatin Sensitization Assay [1]
1000 to 5000,"CN1CCC[C@@H](Oc2ncncc2NC(=O)c2c(N)nn3cc(F)cnc23)C1 [I-A-1, (R)-2-amino-6-fluoro-N-(4-((1-methylpiperidin-3-yl)oxy)pyrimidin-5-yl)pyrazolo[1,5-a]pyrimidine-3-carboxamide]",+ (Compounds with a Cisplatin sensitization value >0.2 μM but <5 μM are marked with “+.”)
10 to 1000,"CN1CCC[C@H](Oc2ncncc2NC(=O)c2c(N)nn3cc(F)cnc23)C1 [I-A-2, (S)-2-amino-6-fluoro-N-(4-((1-methylpiperidin-3-yl)oxy)pyrimidin-5-yl)pyrazolo[1,5-a]pyrimidine-3-carboxamide]",+ (Compounds with a Cisplatin sensitization value >0.2 μM but <5 μM are marked with “+.”)
10 to 1000,"CN1CCC(Oc2ncncc2NC(=O)c2c(N)nn3cc(F)cnc23)CC1 [I-A-5, 2-amino-6-fluoro-N-(4-((1-methylpiperidin-4-yl)oxy)pyrimidin-5-yl)pyrazolo[1,5-a]pyrimidine-3-carboxamide]",++ (Compounds with a Cisplatin sensitization value >0.02 μM but <0.2 μM are marked with “++.”)
1000 to 5000,"CN1CCC(Oc2ncncc2NC(=O)c2c(N)nn3cc(Cl)cnc23)CC1 [I-A-6, 2-amino-6-chloro-N-(4-((1-methylpiperidin-4-yl)oxy)pyrimidin-5-yl)pyrazolo[1,5-a]pyrimidine-3-carboxamide]",++ (Compounds with a Cisplatin sensitization value >0.02 μM but <0.2 μM are marked with “++.”)
10 to 1000,"Nc1nn2cc(F)cnc2c1C(=O)Nc1cncnc1OC1CCN(C2COC2)CC1 [I-A-8, 2-amino-6-fluoro-N-(4-((1-(oxetan-3-yl)piperidin-4-yl)oxy)pyrimidin-5-yl)pyrazolo[1,5-a]pyrimidine-3-carboxamide]",+++ (Compounds with a Cisplatin sensitization value of <0.02 μM are marked with “+++.”)
1000 to 5000,"Nc1nn2cc(Cl)cnc2c1C(=O)Nc1cncnc1OC1CCN(C2COC2)CC1 [I-A-9, 2-amino-6-chloro-N-(4-((1-(oxetan-3-yl)piperidin-4-yl)oxy)pyrimidin-5-yl)pyrazolo[1,5-a]pyrimidine-3-carboxamide]",+ (Compounds with a Cisplatin sensitization value >0.2 μM but <5 μM are marked with “+.”)
10 to 1000,"CN1CC[C@@H](Oc2ncncc2NC(=O)c2c(N)nn3cc(F)cnc23)C1 [I-A-10, (R)-2-amino-6-fluoro-N-(4-((1-methylpyrrolidin-3-yl)oxy)pyrimidin-5-yl)pyrazolo[1,5-a]pyrimidine-3-carboxamide]",+ (Compounds with a Cisplatin sensitization value >0.2 μM but <5 μM are marked with “+.”)
1000 to 5000,"CN1CC[C@H](Oc2ncncc2NC(=O)c2c(N)nn3cc(F)cnc23)C1 [I-A-11, (S)-2-amino-6-fluoro-N-(4-((1-methylpyrrolidin-3-yl)oxy)pyrimidin-5-yl)pyrazolo[1,5-a]pyrimidine-3-carboxamide]",++ (Compounds with a Cisplatin sensitization value >0.02 μM but <0.2 μM are marked with “++.”)

# Source: patent publication US8957078B2, “Compounds useful as inhibitors of ATR kinase” (Vertex Pharmaceuticals Incorporated, priority 2013, dated 2015)
